{"source": "patent US20250360183A1", "about": "“USE OF GMI FROM GANODERMA LUCIDUM SPORES IN THE PREPARATION OF PHARMACEUTICALS AND FOOD PRODUCTS” (Titan Biological & Agricultural Technology Co., Limited, priority 2024, published 2025)", "key": {"[1]": {"system": "BLM-induced pulmonary fibrosis", "assay": "BLM-induced pulmonary fibrosis mouse model", "format": "in vivo, C57BL/6J mice", "settings": "BLM 2.5 U/kg mice", "protocol": "Four groups were intratracheally administered bleomycin (BLM; 2.5 U/kg) to induce pulmonary fibrosis, while one group served as a normal control. The treatment groups included: BLM-only, BLM+GMI (1 mg/kg), BLM+GMI (2 mg/kg), and BLM+PFD (200 mg/kg). All surviving animals were sacrificed on day 22."}, "[2]": {"system": "fibronectin, COL1A1, and α-SMA", "assay": "Western blot of fibrosis markers in TGF-β1-induced fibrotic LL29 cells", "format": "cell-based, human", "settings": "LL29 cells stimulated with TGF-β1 5 ng/ml, normalized to α-tubulin", "protocol": "In the in vitro experiments, cells were pre-treated with test compounds and subsequently stimulated with recombinant TGF-β1 to induce fibrotic processes. TGF-β1 plays a critical role in epithelial-mesenchymal transition (EMT), a key driver in the differentiation of fibroblasts into myofibroblasts. LL29 cells, derived from IPF patient lung fibroblasts, were obtained from ATCC®. Upon reaching 70% confluence, cells were pre-treated with selected concentrations of GMI in low-serum media for 2 hours, followed by exposure to 5 ng/ml of recombinant human TGF-β1 (R&D Systems, MN, USA) for 48 hours.\nCell lysates were prepared in RIPA buffer. […] Protein expression was quantified using Fiji software.\nThe present invention evaluated the expression levels of fibronectin, COL1A1, and alpha-smooth muscle actin (α-SMA), as these proteins are key markers associated with myofibroblasts and extracellular matrix (ECM) remodeling.\nFIG. 3 (A) presents the results of Western blot analysis showing the expression of fibronectin, COL1A1, α-SMA, and the internal loading control α-tubulin. FIGS. 3 (B), (C) and (D) show the quantification of protein expression based on band intensity, represented as fold changes in the ratios of fibronectin/α-tubulin, COL1A1/α-tubulin, and α-SMA/α-tubulin, normalized to the untreated control (NT) group. […]"}}, "data": [{"molecule": "Cc1ccc(=O)n(-c2ccccc2)c1", "note": "[PFD, pirfenidone]", "values": [{"measurement": "survival rate", "setting": "[1]; PFD 200 mg/kg", "value": 50, "unit": "%"}, {"measurement": "lung appearance (gross examination, color)", "setting": "[1]; compared to normal group", "value": "color and appearance comparable to the normal group"}, {"measurement": "expression levels of fibronectin, COL1A1 and α-SMA", "setting": "[2]", "value": "failed to suppress the TGF-β1-induced upregulation"}]}]}
